Results taken from patent publication US9676822B2, “Oligopeptidic compounds and uses thereof” (APIM THERAPEUTICS AS, priority 2008, dated 2017).
Where a SMILES comes first, the peptide text is derived from it. Where no end group is shown, it is not given here. Side-chain parts run from the residue outwards. The star is where a group is joined. 5FAM = O=C1OC2(c3ccc(O)cc3Oc3cc(O)ccc32)c2ccc(C(=O)*)cc21; Ahx = NCCCCCC(=O)O

How the values were obtained:
[1] = tested on: HeLa cells
Procedure: HeLa cells were seeded into 96 well plates (6000 cells/well) and incubated for 3 hours. Various doses of peptides were added to the wells in presence (filled diamonds) or absence of serum (filled square) in the media. After 1 h equal volume media with 10% or 20% serum (to serum free media) were added to the wells. The cells were incubated for 48 hours before measurement of cell survival by the MTT assay.
Cytotoxicity of the peptides was investigated by an MTT assay as described below, using the peptides alone, in the absence of cytostatic drugs. Cytotoxicity data was also obtained from controls used in the cytostatic drug MTT assays (controls with peptide but without cytostatic drug), where the control peptides were followed for longer (4 days).
Cytotoxicity of the peptides after 48 hours are measured using the MTT assay. HeLa cells were seeded into 96 well plates (6000 cells/well) and incubated for 3 hours. Various doses of peptides were added to the wells in presence or absence of serum in the media. After 1 h equal volume media with 1× or 2× (to serum free media) were added and the cells incubated for 48 hours before addition of MTT (see above).

[2] = tested on: EYFP and hABH21-10-EYFP expressing cells; assay: Flow analysis of the cell cycle after treatment with alkylating agents; assay type: cell-based
Excerpt: (§1) This is surprising since TMZ is believed to induce mainly O^6methyl-G which is repair by a direct repair mechanism by MGMT, not involving removal of any bases or strand breaks. […] The cells were still arrested in G2/M on day 3.

[3] = tested on: EYFP and hABH21-10-EYFP expressing cells; assay: Comet assay for DNA repair intermediates after treatment with alkylating agents; assay type: cell-based
Excerpt: as §1

[4] = biological target: T1, PCNA (Homo sapiens, UniProt P12004); assay: Co-immunoprecipitation and western analysis of endogenous PCNA; assay type: binding; settings: anti-GFP immunoprecipitation, extracts of stably expressing cells
T1 construct: endogenous in cells; host or cells: HeLa cells stably expressing the EYFP fusion constructs; fractionated cell extracts
Procedure: HeLa (cervical cancer) and HaCaT (spontaneously transformed keratinocyte) cells stably expressing the constructs of interest were prepared by transfection (by Fugene 6) followed by cell sorting or cloning by dilution, and prolonged culturing in selective (using geneticin, G418, 400 μg/ml, Invitrogen) Dulbecco's modified Eagle's Medium high glucose 4.5 g/l (DMEM) (BioWhittaker®) supplemented with 10% Fetal Calf Serum (FCS), Amphotericin B (250 μg/ml, Sigma-Aldrich), gentamycin (100 μg/ml, Gibco) and glutamine (1 mM, BioWhittaker®). The cells were cultured at 37° C. in 5% carbon dioxide, humidified atmosphere. Fractionated cell extracts from HeLa were prepared by resuspending the cell pellets in 1× packed cell volume (PCV) in buffer I (10 mM Tris-HCl, pH 8.0 and 50 mM KCl) and 1×PCV in buffer II (10 mM Tris-HCl, 100 mM KCl, 20% glycerol, 0.5% Nonidet P-40, 10 mM EGTA, 10 mM MgCl2, 1 mM DTT, 1× Complete protease inhibitor (Roche), phosphates inhibitor cocktail (PIC I and PIC II, Sigma). Cells were incubated under constant shaking for 30 min at 4° C. The supernatant (soluble fraction) was harvested. The pellet (containing nuclei) was resuspended in 1×PCV of buffer III (10 mM Tris-HCl, pH 8.0 and 100 mM KCl) and 1×PCV buffer II, and briefly sonicated until all nuclei were disrupted. […]

[5] = biological target: T1, PCNA; assay: Co-localisation of EYFP fusion constructs with ECFP-PCNA by confocal imaging; assay type: cell-based; settings: co-expressed with ECFP-PCNA
Procedure: Confocal imaging and FRET measurements Live HeLa cells were examined 16-24 hours after transient transfection (by Fugene 6 (Roche Inc.) according to the manufacturer's recommendations) of ECFP and EYFP fusion constructs. Fluorescent images were acquired using a Zeiss LSM 510 Meta laser scanning microscope equipped with a Plan-Apochromat 63×/1.4 oil immersion objective. Enhanced cyan fluorescent protein (ECFP) was excited at λ=458 nm and detected at λ=470-500 nm and enhanced yellow fluorescent protein (EYFP) was excited at λ=514 nm and detected at λ=530-600 nm, using consecutive scans. The thickness of the slice was 1 μm.
PCNA tagged with cyan fluorescent protein (ECFP) was co-expressed with various hABH2 deletion constructs fused with yellow fluorescent protein (EYFP). […] (FIG. 1).

[6] = tested on: HaCaT (spontaneously transformed keratinocyte) cells; assay: Cell survival assay of HaCaT cells stably expressing the construct; assay type: cell-based
Procedure: (§2) HeLa and HaCaT cells were seeded into 96 well plates (4000 cells/well) and incubated for 4 hours. […] The U2OS cells were exposed to MMS and TMZ only. The cells were exposed continuously until harvest. Cells were harvested every day for 4 days using the MTT assay (Mosmann, 1983). OD was measured at 570 nm, and the average from at least 6 wells was used to calculate cell survival. Data presented is growth from one representative experiment and has been reproduced at least 2 times.

[7] = biological target: T1, PCNA; assay: FRET measurement with ECFP-PCNA; assay type: cell-based; settings: positive FRET: distance between tags less than 100 Å
Excerpt: Fluorescent resonance energy transfer (FRET) occurs if the tags (EYFP and ECFP) are less than 100 Å (10 nm) apart. We detected FRET using the sensitised emission method, measuring acceptor (EYFP) emission upon donor (ECFP) excitation. We had FRET when the intensity of emitted light from EYFP after excitation of the ECFP fluorochrome was stronger than the light emitted by ECFP or EYFP-tagged proteins alone, after excitation with the EYFP and ECFP lasers respectively (bleed through), given by the equation: FRET=I2−I1 (ID2/ID1)−I3 (IA2/IA3) is >0. FRET was normalised for expression levels using the equation: NFRET=FRET/(I1×I3)^1/2. NFRET was calculated from mean intensities (I) within a region of interest (ROI) containing more than 25 pixels where all pixels had intensities below 250 and the average intensities were between 100 and 200 for both the donor and the acceptor constructs. Channel 1 (ECFP) and 3 (EYFP) were measured as described above for imaging, and channel 2 (FRET) was excitated with 2=458 nm and detected at λ=530-600 nm. ID1, D2, D3 and IA1, A2, A3 were determined for cells transfected with ECFP and EYFP constructs only, with same settings and same fluorescence intensities as co-transfected cells (I1 and I3). […]
To examine the degree of proximity of hABH2 and PCNA, fluorescence resonance energy transfer (FRET) was measured.

[8] = tested on: HeLa cells; assay: Cell survival assay (MTT) of HeLa cells expressing the construct, with alkylating agents; assay type: cell-based
Procedure: as §2, with “times. […] TZM is reported to be an O^6G methylating agent, while MMC causes interstrand cross links via N-alkylation of guanine in CpG's.” for “times.”

[9] = tested on: HeLa cells; assay: MTT assay, peptide with cytostatic drugs (MMS, Cisplatin); assay type: cell-based
Procedure: The effects of the peptides in sensitising cells to the effects of cytostatic drugs were investigated using an MTT assay and a clonogenic assay (CFU assay) as described below.
HeLa cells were seeded into 96 well plates (6000 cells/well) and incubated for 3 hours. Various doses of MMS and Cisplatin were added to the wells. After 24 hours peptides were added to the cells in serum free media and incubated for 1 h. Fresh media with cytostatic drugs was added and the cells were harvested after additional 24, 48 and 72 hours. MTT was added to the cells (3-(4,5-Dimethylthiazol-2-yl)-2,5-diphenyltetrazolium bromide) and OD was measured at 570 nm [52], and the average from at least 6 wells was used to calculate cell survival. Data is presented as growth from one representative experiment and has been reproduced at least 2 times.

[10] = tested on: cell membranes; assay type: cell-based
Procedure: The cells were treated with different concentrations (2, 4 and 8 μM) of peptide for 1 hour. Next, propidium iodide (PI) (50 μg/ml in PBS) was added, this will stain DNA if the cell membranes are permeable. Analysis were done within the next 10 minutes on a FACS Canto flow cytometer (BD-Life Science).

[11] = HeLa cells expressing the construct

T1 sequence (P12004 whole entry, the tested form may be a part): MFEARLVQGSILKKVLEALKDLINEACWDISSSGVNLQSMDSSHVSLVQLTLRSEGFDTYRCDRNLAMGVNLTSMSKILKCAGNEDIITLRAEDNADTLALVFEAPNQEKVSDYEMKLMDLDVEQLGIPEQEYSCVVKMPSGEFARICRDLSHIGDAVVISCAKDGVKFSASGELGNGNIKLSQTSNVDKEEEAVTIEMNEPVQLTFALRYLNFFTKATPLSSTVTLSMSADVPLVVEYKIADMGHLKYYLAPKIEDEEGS

In the case of “MDRWLVKRIWKKKRKIIRQIKIWFQNRRMKWKK-Ahx5-FAM)G (not fully specified (residue 33, C-terminus); printed as MDRWLVKRIWKKKRKIIRQIKIWFQNRRMKWKK-Ahx5-FAM)G; also: Ahx5-FAM label and G at C-terminal end, arrangement unclear) [MDR26-8]”, the Cytotoxicity [1] is reported as “+”.

For `Cn1nnc2c(C(N)=O)ncn2c1=O` [TMZ, 4-methyl-5-oxo-2,3,4,6,8-pentazabicyclo [4.3.0] nona-2,7,9-triene-9-carboxamide], the cell cycle effect [2] was “arrested in G2/M up to day 3” and the “DNA repair intermediates (abasic sites, SSB, DSB)” value (shortened to “DNA repair intermediates”) [3] was “highest levels of repair intermediates after 4 hours”.

For `COS(C)(=O)=O` [MMS, methyl methanesulfonate], the cell cycle effect [2] was “S-phase arrest” and the “DNA repair intermediates” value [3] was “highest levels of DNA repair intermediates after 4 hours”.

In the case of “hABH21-10-EYFP: the 10 N-terminal amino acids of hABH2 fused to EYFP, expressed in cells (MDRFLVKGAQ; not fully specified (C-terminus); also: fused to EYFP, expressed in cells)”, the “pull-down of endogenous PCNA” value [4] is reported as “pulled down”, the “co-localisation with PCNA in replication foci” value [5] is reported as “sufficient for co-localisation with PCNA” and the “sensitivity to MMS and TMZ” value [6] is reported as “hypersensitive to MMS and TMZ”. For the same compound, the “FRET with ECFP-PCNA” value [7] was “positive FRET”, the “sensitisation to MMS” value [8, 11] was “sensitised HeLa cells to treatment with MMS” and the “sensitisation to the other cytostatic agents (BCNU, TZM, MMC)” value [8, 11] was “sensitised HeLa cells to all of the other cytostatic agents tested”. The “growth rate of untreated cells” value ([8]; over-expression, no cytostatic agent) was “did not interfere with the growth rate of untreated cells”.

“Ac-MDRWLVKWKKKRKIRRRRRRRRRRR [MDR26-72-0]” was tested, and the “activity in the MTT assay” value [9] was “good activity”.

`CC[C@H](C)[C@H](NC(=O)[C@H](CCCCN)NC(=O)[C@@H](NC(=O)[C@H](CCC(N)=O)NC(=O)[C@H](CCCNC(=N)N)NC(=O)[C@H](CC(C)C)NC(=O)[C@@H](NC(=O)[C@H](CCCCN)NC(=O)[C@H](CCCNC(=N)N)NC(=O)[C@H](CCCCN)NC(=O)[C@H](CCCCN)NC(=O)[C@H](CCCCN)NC(=O)[C@@H]1CCCN1C(=O)[C@H](CCC(N)=O)NC(=O)[C@H](C)NC(=O)CNC(=O)[C@H](CCCCN)NC(=O)[C@@H](NC(=O)[C@H](CC(C)C)NC(=O)[C@H](Cc1c[nH]c2ccccc12)NC(=O)[C@H](CCCNC(=N)N)NC(=O)[C@H](CC(=O)O)NC(=O)[C@@H](N)CCSC)C(C)C)C(C)C)[C@@H](C)CC)C(=O)N[C@@H](Cc1c[nH]c2ccccc12)C(=O)N[C@@H](Cc1ccccc1)C(=O)N[C@@H](CCC(N)=O)C(=O)N[C@@H](CC(N)=O)C(=O)N[C@@H](CCCNC(=N)N)C(=O)N[C@@H](CCCNC(=N)N)C(=O)N[C@@H](CCSC)C(=O)N[C@@H](CCCCN)C(=O)N[C@@H](Cc1c[nH]c2ccccc12)C(=O)N[C@@H](CCCCN)C(=O)N[C@@H](CCCCNC(=O)CCCCCNC(=O)c1ccc2c(c1)C(=O)OC21c2ccc(O)cc2Oc2cc(O)ccc21)C(=O)NCC(=O)O` [MDR2] (H-MDRWLVKGAQPKKKRKVLRQIKIWFQNRRMKWKK([Ahx-5FAM])G-OH) was tested, and the “membrane toxicity” value [10] was “membrane toxicity is low”.

`O=NN(CCCl)C(=O)NCCCl` [BCNU, 1,3-Bis(2-chloroethyl)-1-nitrosourea] was tested, and the cell cycle effect [2] was “transient G2/M arrest on day 1” and the “DNA repair intermediates” value [3] was “very low levels of repair intermediates”.
